Data taken from PubChem BioAssay AID1963845 (Molecular Pharmacology Branch, DTP, NCI, 2024).
Where “and” joins values, the source holds several entries; their conditions need not be identical. Identical values can stand only once.

Test system: 429239-143-T-J1-PDC complex spheroid viability
Assay: Anticancer human tumor 429239-143-T-J1-PDC patient-derived small cell lung carcinoma cell line growth inhibition [POLQ]
Settings: for viability, T/C: stronger effect = lower value
Procedure: Multicellular complex tumor spheroid response to Polymerase (POL) inhibitors (novobiocin, ART-558, RP6685) in combination with a variety of drugs and investigational agents in selected tumor cell lines
The POL inhibitors (novobiocin, ART-558, and RP6685) were evaluated both individually and in combination with standard of care and investigational anticancer small molecules within a complex spheroid model of solid tumors. . Complex spheroids include a stromal component modeled by human endothelial cells (HUVEC) and fibroblasts modeled by human mesenchymal stem cells (MSCs). The concentration ranges selected for each drug and investigational agent were based upon clinically achievable concentrations if the clinical Cmax of the agent was known.
Compounds. The drugs and investigational agents: novobiocin (NSC847541), ART-558 (NSC835418), RP-6685 (NSC848927), peposertib (NSC802822), ceralasertib (NSC780249), elimusertib (NSC800525), camonsertib (NSC841442), AZD-1390 (NSC803789), olaparib (NSC753686), talazoparib (NSC767125), rucaparib (NSC756644), sotorasib (NSC818433), MRTX-1133 (NSC836407), SN-38 (NSC673596), topotecan (NSC609699), epotoside (NSC141540), doxorubicin (NSC123127), gemcitabine (NSC613327), 5-fluorouracil (NSC19893), paclitaxel (NSC125973), vemurafenib (NSC761431), MSA-2 (NSC828583), SN-011 (NSC837082), adavosertib (NSC754352), prexasertib (NSC758257), carboplatin (NSC241240) and oxaliplatin (NSC266046), were obtained from the National Cancer Institute (NCI) Developmental Therapeutics Program Chemical Repository (21). The FDA-approved anticancer drug set is available from the Developmental Therapeutics Program at https://dtp.cancer.gov/organization/dscb/obtaining/. […] The stock solutions were prepared in dimethyl sulfoxide (DMSO, Sigma-Aldrich, St. Louis, MO, cat. D2650), except for the platinum compounds which were prepared in saline (Quality Biological, Gaithersburg, MD, cat. 114-055-101), at 800-fold the tested concentration and stored at -70 degrees C prior to their use. All drugs and investigational agents were tested over a range starting from a high concentration at or near the clinical Cmax and decreasing in half-log increments. If the clinical Cmax for an agent had not been determined, the highest concentration tested was 10 microM, except for SN-38, which was tested at a high concentration of 1 microM.
Cell Culture. All cells were maintained in an incubator at 37 degrees C and 5% CO2 with 95% humidity. The PDC lines were cultured according to standard operating procedures established by the NCI PDMR (https://pdmr.cancer.gov). Table 3 of the manuscript, lists the cell lines along with the number of the three cell types plated to form the mct-spheroids and media for tumor cell growth. After thawing, all PDC lines, except 997537-175-T-J1-PDC and 415267-285-R-J2-PDC, were cultured in Matrigel-coated flasks prepared with a working solution of 1X Ham's F-12 nutrient mix, without supplementation (Thermo Fisher Scientific, cat. 11765054), 100 U/mL penicillin-streptomycin (Thermo Fisher Scientific, cat. 15140122), and 2.5% Matrigel (Corning Inc., Corning, NY, cat. 354248) for the first three passages. The two PDC lines 997537-175-T-J1-PDC and 415267-285-R-J2-PDC were cultured on uncoated flasks. The 857933-349-R-J2-PDC line was cultured in 6C/Colon 1B media containing advanced DMEM/F-12 (Thermo Fisher Scientific, cat. 12634028), 10 mM HEPES (Thermo Fisher Scientific, cat. 15630080), 1X GlutaMAX supplement (Thermo Fisher Scientific, cat. 35050061), 0.1 mg/mL primocin (InvivoGen, San Diego, CA, cat. ant-pm-2), 10% defined fetal bovine serum, heat inactivated (HyClone Laboratories Inc., Logan, UT, cat. SH30070.03HI), 50% L-WRN conditioned media (ATCC, cat. CRL-3276), 1.25 mM N-Acetyl-L-cysteine (Sigma-Aldrich, cat. A9165), 10 mM nicotinamide (Sigma-Aldrich, cat. N0636), 1X B-27 supplement (Thermo Fisher Scientific, cat. 17504044), 1X N-2 supplement (Thermo Fisher Scientific, cat. […]
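Further: luminescence signal used as surrogate measure of viable cells; spheroids exposed to compounds for seven days before readout.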
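Wherever viability, T/C is given: 100% = DMSO vehicle control viability as luminescence relative to vehicle.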

Compound: C=CCn1c(=O)c2cnc(Nc3ccc(N4CCN(C)CC4)cc3)nc2n1-c1cccc(C(C)(C)O)n1
- viability, T/C (compound 0.00316 µM): 99.5% and 101% and 95.1%
- viability, T/C (compound 0.01 µM): 103% and 107% and 104%
- viability, T/C (compound 0.0316 µM): 89.4% and 120% and 103%
- viability, T/C (compound 0.1 µM): 82.4% and 97.7% and 98.2%
- viability, T/C (compound 0.316 µM): 91.7% and 94% and 88.9%
- viability, T/C (compound 1 µM): 17.4% and 20% and 18.9%
- IC50 (curve of compound): 603 nM and 621 nM and 600 nM

Compound: O=C(Nc1ccc(O)c(NS(=O)(=O)c2ccc(F)cc2)c1)c1ccc(-c2ccccc2)cc1 + Cc1cccc(N(C)C(=O)C2C(O)CCN2c2nc(C)cc(C(F)(F)F)c2C#N)c1
- IC50 (curve of first compound, second compound 0.0316 µM): > 10000 nM
- IC50 (curve of first compound, second compound 0.1 µM): > 10000 nM
- IC50 (curve of first compound, second compound 0.316 µM): > 10000 nM
- IC50 (curve of first compound, second compound 1 µM): > 10000 nM
- IC50 (curve of first compound, second compound 3.16 µM): > 10000 nM
- IC50 (curve of first compound, second compound 10 µM): > 10000 nM
- viability, T/C (second compound 0.0316 µM, first compound 0.0316 µM): 93.8%
- viability, T/C (second compound 0.0316 µM, first compound 0.1 µM): 104%
- viability, T/C (second compound 0.0316 µM, first compound 0.316 µM): 91.9%
- viability, T/C (second compound 0.0316 µM, first compound 1 µM): 121%
- viability, T/C (second compound 0.0316 µM, first compound 3.16 µM): 100%
- viability, T/C (second compound 0.0316 µM, first compound 10 µM): 105%
- viability, T/C (second compound 0.1 µM, first compound 0.0316 µM): 100%
- viability, T/C (second compound 0.1 µM, first compound 0.1 µM): 112%
- viability, T/C (second compound 0.1 µM, first compound 0.316 µM): 111%
- viability, T/C (second compound 0.1 µM, first compound 1 µM): 99.8%
- viability, T/C (second compound 0.1 µM, first compound 3.16 µM): 107%
- viability, T/C (second compound 0.1 µM, first compound 10 µM): 102%
- viability, T/C (second compound 0.316 µM, first compound 0.0316 µM): 100%
- viability, T/C (second compound 0.316 µM, first compound 0.1 µM): 110%
- viability, T/C (second compound 0.316 µM, first compound 0.316 µM): 102%
- viability, T/C (second compound 0.316 µM, first compound 1 µM): 106%
- viability, T/C (second compound 0.316 µM, first compound 3.16 µM): 118%
- viability, T/C (second compound 0.316 µM, first compound 10 µM): 107%
- viability, T/C (second compound 1 µM, first compound 0.0316 µM): 103%
- viability, T/C (second compound 1 µM, first compound 0.1 µM): 99.5%
- viability, T/C (second compound 1 µM, first compound 0.316 µM): 94.1%
- viability, T/C (second compound 1 µM, first compound 1 µM): 105%
- viability, T/C (second compound 1 µM, first compound 3.16 µM): 112%
- viability, T/C (second compound 1 µM, first compound 10 µM): 97%
- viability, T/C (second compound 3.16 µM, first compound 0.0316 µM): 106%
- viability, T/C (second compound 3.16 µM, first compound 0.1 µM): 106%
- viability, T/C (second compound 3.16 µM, first compound 0.316 µM): 108%
- viability, T/C (second compound 3.16 µM, first compound 1 µM): 103%
- viability, T/C (second compound 3.16 µM, first compound 3.16 µM): 105%
- viability, T/C (second compound 3.16 µM, first compound 10 µM): 107%
- viability, T/C (second compound 10 µM, first compound 0.0316 µM): 111%
- viability, T/C (second compound 10 µM, first compound 0.1 µM): 98.7%
- viability, T/C (second compound 10 µM, first compound 0.316 µM): 107%
- viability, T/C (second compound 10 µM, first compound 1 µM): 105%
- viability, T/C (second compound 10 µM, first compound 3.16 µM): 109%
- viability, T/C (second compound 10 µM, first compound 10 µM): 104%

Compound: CC(=O)O[C@H]1C(=O)[C@@]2(C)[C@H]([C@H](OC(=O)c3ccccc3)[C@]3(O)C[C@H](OC(=O)[C@H](O)[C@@H](NC(=O)c4ccccc4)c4ccccc4)C(C)=C1C3(C)C)[C@]1(OC(C)=O)CO[C@@H]1C[C@@H]2O
- viability, T/C (compound 0.00949 µM): 62.4% and 68.4% and 14%
- viability, T/C (compound 0.03 µM): 18.6% and 19.8% and 13.2%
- viability, T/C (compound 0.0949 µM): 14.8% and 17.6% and 11.4%
- viability, T/C (compound 0.3 µM): 19.5% and 16.1% and 12.9%
- viability, T/C (compound 0.949 µM): 19.7% and 25.1% and 11.1%
- viability, T/C (compound 3 µM): 29.5% and 28.1% and 14%
- IC50 (curve of compound): 13.4 nM and 14.9 nM and < 9.49 nM

Compound: CCc1cc2c(N3CCc4c(cc(Cn5ccnc5)cc4-c4cn(C)nc4C(F)(F)F)C3=O)ccnc2c(OC)n1
- viability, T/C (compound 0.0316 µM): 91% and 106% and 101%
- viability, T/C (compound 0.1 µM): 85.1% and 102% and 98.5%
- viability, T/C (compound 0.316 µM): 75.5% and 95.9% and 87.7%
- viability, T/C (compound 1 µM): 61.2% and 86.6% and 91.9%
- viability, T/C (compound 3.16 µM): 55.3% and 83.3% and 73.6%
- viability, T/C (compound 10 µM): 32.2% and 55.7% and 54.7%
- IC50 (curve of compound): 3300 nM and > 10000 nM
